Tested on: A375_NRAS_Q61K_DOXind
Experiment: pERK immunofluorescence relative to doxycycline-induced cells with 1 uM vemurafenib alone; higher = more ERK phosphorylation (less pathway inhibition)
Settings: drug treatment time 24 h, doxycycline 1000 ng/mL, doxycycline pre-induction time 24 h, vemurafenib background 1 µM
Method in brief: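 A375 cells with doxycycline-inducible FLAG-tagged mutant NRAS were given doxycycline or mock for 24 h. They then received two-drug dose combinations with a third drug held at 1 uM for 24 h. Fixed cells were stained for phospho-ERK T202/Y204 and imaged at 10× on an Operetta, with FLAG-negative cells excluded. The cytosolic population mean is normalised to induced cells given the 1 uM drug alone; the value is the mean of 2 technical replicates. pERK was measured by immunofluorescence with FLAG-negative cells excluded. Averages of 2 technical replicates.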

## CNc1ncc2cc(-c3cc(NC(=O)NCCC(C)(C)C)c(F)cc3C)c(C)nc2n1 + O=C(c1ccc(F)c(F)c1Nc1ccc(I)cc1F)N1CC(O)([C@@H]2CCCCN2)C1 [Cobimetinib]
Drug A concentration 0 µM, drug B concentration 0.0001 µM
  pERK immunofluorescence: 1.08
Drug A concentration 0 µM, drug B concentration 0.000316228 µM
  pERK immunofluorescence: 1.08
Drug A concentration 0 µM, drug B concentration 0.001 µM
  pERK immunofluorescence: 1.06
Drug A concentration 0 µM, drug B concentration 0.00316228 µM
  pERK immunofluorescence: 1.06
Drug A concentration 0 µM, drug B concentration 0.01 µM
  pERK immunofluorescence: 0.844
Drug A concentration 0 µM, drug B concentration 0.0316228 µM
  pERK immunofluorescence: 0.515
Drug A concentration 0 µM, drug B concentration 0.1 µM
  pERK immunofluorescence: 0.168
Drug A concentration 0 µM, drug B concentration 0.316228 µM
  pERK immunofluorescence: 0.0479
Drug A concentration 0 µM, drug B concentration 1 µM
  pERK immunofluorescence: 0.0212
Drug A concentration 0.000316228 µM, drug B concentration 0 µM
  pERK immunofluorescence: 0.724
Drug A concentration 0.000316228 µM, drug B concentration 0.0001 µM
  pERK immunofluorescence: 0.706
Drug A concentration 0.000316228 µM, drug B concentration 0.000316228 µM
  pERK immunofluorescence: 0.786
Drug A concentration 0.000316228 µM, drug B concentration 0.001 µM
  pERK immunofluorescence: 0.747
Drug A concentration 0.000316228 µM, drug B concentration 0.00316228 µM
  pERK immunofluorescence: 0.709
Drug A concentration 0.000316228 µM, drug B concentration 0.01 µM
  pERK immunofluorescence: 0.579
Drug A concentration 0.000316228 µM, drug B concentration 0.0316228 µM
  pERK immunofluorescence: 0.323
Drug A concentration 0.000316228 µM, drug B concentration 0.1 µM
  pERK immunofluorescence: 0.0754
Drug A concentration 0.000316228 µM, drug B concentration 0.316228 µM
  pERK immunofluorescence: 0.026
Drug A concentration 0.000316228 µM, drug B concentration 1 µM
  pERK immunofluorescence: 0.0165
Drug A concentration 0.001 µM, drug B concentration 0 µM
  pERK immunofluorescence: 0.696
Drug A concentration 0.001 µM, drug B concentration 0.0001 µM
  pERK immunofluorescence: 0.745
Drug A concentration 0.001 µM, drug B concentration 0.000316228 µM
  pERK immunofluorescence: 0.758
Drug A concentration 0.001 µM, drug B concentration 0.001 µM
  pERK immunofluorescence: 0.771
Drug A concentration 0.001 µM, drug B concentration 0.00316228 µM
  pERK immunofluorescence: 0.687
Drug A concentration 0.001 µM, drug B concentration 0.01 µM
  pERK immunofluorescence: 0.45
Drug A concentration 0.001 µM, drug B concentration 0.0316228 µM
  pERK immunofluorescence: 0.16
Drug A concentration 0.001 µM, drug B concentration 0.1 µM
  pERK immunofluorescence: 0.0453
Drug A concentration 0.001 µM, drug B concentration 0.316228 µM
  pERK immunofluorescence: 0.0201
Drug A concentration 0.001 µM, drug B concentration 1 µM
  pERK immunofluorescence: 0.016
Drug A concentration 0.00316228 µM, drug B concentration 0 µM
  pERK immunofluorescence: 0.664
Drug A concentration 0.00316228 µM, drug B concentration 0.0001 µM
  pERK immunofluorescence: 0.697
Drug A concentration 0.00316228 µM, drug B concentration 0.000316228 µM
  pERK immunofluorescence: 0.767
Drug A concentration 0.00316228 µM, drug B concentration 0.001 µM
  pERK immunofluorescence: 0.651
Drug A concentration 0.00316228 µM, drug B concentration 0.00316228 µM
  pERK immunofluorescence: 0.592
Drug A concentration 0.00316228 µM, drug B concentration 0.01 µM
  pERK immunofluorescence: 0.268
Drug A concentration 0.00316228 µM, drug B concentration 0.0316228 µM
  pERK immunofluorescence: 0.0865
Drug A concentration 0.00316228 µM, drug B concentration 0.1 µM
  pERK immunofluorescence: 0.0262
Drug A concentration 0.00316228 µM, drug B concentration 0.316228 µM
  pERK immunofluorescence: 0.0166
Drug A concentration 0.00316228 µM, drug B concentration 1 µM
  pERK immunofluorescence: 0.0158
Drug A concentration 0.01 µM, drug B concentration 0 µM
  pERK immunofluorescence: 0.583
Drug A concentration 0.01 µM, drug B concentration 0.0001 µM
  pERK immunofluorescence: 0.608
Drug A concentration 0.01 µM, drug B concentration 0.000316228 µM
  pERK immunofluorescence: 0.593
Drug A concentration 0.01 µM, drug B concentration 0.001 µM
  pERK immunofluorescence: 0.537
Drug A concentration 0.01 µM, drug B concentration 0.00316228 µM
  pERK immunofluorescence: 0.359
Drug A concentration 0.01 µM, drug B concentration 0.01 µM
  pERK immunofluorescence: 0.109
Drug A concentration 0.01 µM, drug B concentration 0.0316228 µM
  pERK immunofluorescence: 0.0388
Drug A concentration 0.01 µM, drug B concentration 0.1 µM
  pERK immunofluorescence: 0.0196
Drug A concentration 0.01 µM, drug B concentration 0.316228 µM
  pERK immunofluorescence: 0.0161
Drug A concentration 0.01 µM, drug B concentration 1 µM
  pERK immunofluorescence: 0.0166
Drug A concentration 0.0316228 µM, drug B concentration 0 µM
  pERK immunofluorescence: 0.455
Drug A concentration 0.0316228 µM, drug B concentration 0.0001 µM
  pERK immunofluorescence: 0.528
Drug A concentration 0.0316228 µM, drug B concentration 0.000316228 µM
  pERK immunofluorescence: 0.47
Drug A concentration 0.0316228 µM, drug B concentration 0.001 µM
  pERK immunofluorescence: 0.389
Drug A concentration 0.0316228 µM, drug B concentration 0.00316228 µM
  pERK immunofluorescence: 0.185
Drug A concentration 0.0316228 µM, drug B concentration 0.01 µM
  pERK immunofluorescence: 0.0635
Drug A concentration 0.0316228 µM, drug B concentration 0.0316228 µM
  pERK immunofluorescence: 0.0285
Drug A concentration 0.0316228 µM, drug B concentration 0.1 µM
  pERK immunofluorescence: 0.0172
Drug A concentration 0.0316228 µM, drug B concentration 0.316228 µM
  pERK immunofluorescence: 0.0158
Drug A concentration 0.0316228 µM, drug B concentration 1 µM
  pERK immunofluorescence: 0.0155
Drug A concentration 0.1 µM, drug B concentration 0 µM
  pERK immunofluorescence: 0.306
Drug A concentration 0.1 µM, drug B concentration 0.0001 µM
  pERK immunofluorescence: 0.31
Drug A concentration 0.1 µM, drug B concentration 0.000316228 µM
  pERK immunofluorescence: 0.287
Drug A concentration 0.1 µM, drug B concentration 0.001 µM
  pERK immunofluorescence: 0.187
Drug A concentration 0.1 µM, drug B concentration 0.00316228 µM
  pERK immunofluorescence: 0.0869
Drug A concentration 0.1 µM, drug B concentration 0.01 µM
  pERK immunofluorescence: 0.0387
Drug A concentration 0.1 µM, drug B concentration 0.0316228 µM
  pERK immunofluorescence: 0.0223
Drug A concentration 0.1 µM, drug B concentration 0.1 µM
  pERK immunofluorescence: 0.0174
Drug A concentration 0.1 µM, drug B concentration 0.316228 µM
  pERK immunofluorescence: 0.0169
Drug A concentration 0.1 µM, drug B concentration 1 µM
  pERK immunofluorescence: 0.0168
Drug A concentration 0.316228 µM, drug B concentration 0 µM
  pERK immunofluorescence: 0.122
Drug A concentration 0.316228 µM, drug B concentration 0.0001 µM
  pERK immunofluorescence: 0.116
Drug A concentration 0.316228 µM, drug B concentration 0.000316228 µM
  pERK immunofluorescence: 0.108
Drug A concentration 0.316228 µM, drug B concentration 0.001 µM
  pERK immunofluorescence: 0.077
Drug A concentration 0.316228 µM, drug B concentration 0.00316228 µM
  pERK immunofluorescence: 0.0399
Drug A concentration 0.316228 µM, drug B concentration 0.01 µM
  pERK immunofluorescence: 0.0224
Drug A concentration 0.316228 µM, drug B concentration 0.0316228 µM
  pERK immunofluorescence: 0.0172
Drug A concentration 0.316228 µM, drug B concentration 0.1 µM
  pERK immunofluorescence: 0.0164
Drug A concentration 0.316228 µM, drug B concentration 0.316228 µM
  pERK immunofluorescence: 0.0168
Drug A concentration 0.316228 µM, drug B concentration 1 µM
  pERK immunofluorescence: 0.017
Drug A concentration 1 µM, drug B concentration 0 µM
  pERK immunofluorescence: 0.0463
Drug A concentration 1 µM, drug B concentration 0.0001 µM
  pERK immunofluorescence: 0.045
Drug A concentration 1 µM, drug B concentration 0.000316228 µM
  pERK immunofluorescence: 0.0414
Drug A concentration 1 µM, drug B concentration 0.001 µM
  pERK immunofluorescence: 0.0293
Drug A concentration 1 µM, drug B concentration 0.00316228 µM
  pERK immunofluorescence: 0.0209
Drug A concentration 1 µM, drug B concentration 0.01 µM
  pERK immunofluorescence: 0.0181
Drug A concentration 1 µM, drug B concentration 0.0316228 µM
  pERK immunofluorescence: 0.0173
Drug A concentration 1 µM, drug B concentration 0.1 µM
  pERK immunofluorescence: 0.0169
Drug A concentration 1 µM, drug B concentration 0.316228 µM
  pERK immunofluorescence: 0.0172
Drug A concentration 1 µM, drug B concentration 1 µM
  pERK immunofluorescence: 0.0172
Drug A concentration 3.16228 µM, drug B concentration 0 µM
  pERK immunofluorescence: 0.0225
Drug A concentration 3.16228 µM, drug B concentration 0.0001 µM
  pERK immunofluorescence: 0.0225
Drug A concentration 3.16228 µM, drug B concentration 0.000316228 µM
  pERK immunofluorescence: 0.0215
Drug A concentration 3.16228 µM, drug B concentration 0.001 µM
  pERK immunofluorescence: 0.0203
Drug A concentration 3.16228 µM, drug B concentration 0.00316228 µM
  pERK immunofluorescence: 0.0207
Drug A concentration 3.16228 µM, drug B concentration 0.01 µM
  pERK immunofluorescence: 0.0173
Drug A concentration 3.16228 µM, drug B concentration 0.0316228 µM
  pERK immunofluorescence: 0.0169
Drug A concentration 3.16228 µM, drug B concentration 0.1 µM
  pERK immunofluorescence: 0.0175
Drug A concentration 3.16228 µM, drug B concentration 0.316228 µM
  pERK immunofluorescence: 0.0169
Drug A concentration 3.16228 µM, drug B concentration 1 µM
  pERK immunofluorescence: 0.0164
Drug A concentration 10 µM, drug B concentration 0 µM
  pERK immunofluorescence: 0.0198
Drug A concentration 10 µM, drug B concentration 0.0001 µM
  pERK immunofluorescence: 0.0196
Drug A concentration 10 µM, drug B concentration 0.000316228 µM
  pERK immunofluorescence: 0.0203
Drug A concentration 10 µM, drug B concentration 0.001 µM
  pERK immunofluorescence: 0.0186
Drug A concentration 10 µM, drug B concentration 0.00316228 µM
  pERK immunofluorescence: 0.0186
Drug A concentration 10 µM, drug B concentration 0.01 µM
  pERK immunofluorescence: 0.02
Drug A concentration 10 µM, drug B concentration 0.0316228 µM
  pERK immunofluorescence: 0.0189
Drug A concentration 10 µM, drug B concentration 0.1 µM
  pERK immunofluorescence: 0.0179
Drug A concentration 10 µM, drug B concentration 0.316228 µM
  pERK immunofluorescence: 0.0182
Drug A concentration 10 µM, drug B concentration 1 µM
  pERK immunofluorescence: 0.0184

Source: the supplement of paper PMC9912026
